Assay results taken from the supplement of paper PMC4862054.

Experiments:
Conditions in all cases: incubation time: 72 h
CAL-148 [1] = experiment: normalised response (% of control), CellTiter-Glo; higher = more viable cells (100 = DMSO, 0 = benzethonium chloride kill control)
Procedure: (§1)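 DSRT, 72 h incubation, CellTox Green / CellTiter-Glo readout. Signal is normalised to DMSO and benzethonium chloride controls. Value is the normalised response at dose 3.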

MDA-MB-453 [2] = experiment: as above
Procedure: as §1

MDA-MB-468 [3] = experiment: as above
Procedure: as §1

BT-474 [4] = experiment: as above
Procedure: as §1

MDA-MB-231 [5] = experiment: as above
Procedure: as §1

DU-4475 [6] = experiment: as above
Procedure: as §1

HCC1599 [7] = experiment: as above
Procedure: as §1

MCF-10A [8] = experiment: as above
Procedure: as §1

CAL-85-1 [9] = experiment: as above
Procedure: as §1

CAL-51 [10] = experiment: as above
Procedure: as §1

HDQ-P1 [11] = experiment: as above
Procedure: as §1

HCC1143 [12] = experiment: as above
Procedure: as §1

SK-BR-3 = experiment: as above
Procedure: as §1

Hs578T [13] = experiment: as above
Procedure: as §1

HCC1937 [14] = experiment: as above
Procedure: as §1

BT-549 [15] = experiment: as above
Procedure: as §1

MDA-MB-436 [16] = experiment: as above
Procedure: as §1

CAL-120 [17] = experiment: as above
Procedure: as §1

MFM-223 [18] = experiment: as above
Procedure: as §1

CAL-148 [19] = experiment: normalised response (% of control), CellTox Green; higher = less cell death (100 = DMSO, 0 = benzethonium chloride kill control)
Summary of the method: (§2)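 In 384-well plates holding compound at 5 concentrations in 10-fold steps over a 10,000-fold range specific to each compound, breast cancer cell lines were seeded as 20 µl suspension and incubated 72 h. CellTox Green fluorescence was measured at 485/520 nm, after which CellTiter-Glo luminescence was measured following 10 min at room temperature. Plate signals were normalised to 0.1 % DMSO (100) and a positive kill control (0), and each value is the normalised signal at a single concentration.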

MDA-MB-453 [20] = experiment: as above
Summary of the method: as §2

MDA-MB-468 [21] = experiment: as above
Summary of the method: as §2

BT-474 [22] = experiment: as above
Summary of the method: as §2

MDA-MB-231 [23] = experiment: as above
Summary of the method: as §2

DU-4475 [24] = experiment: as above
Summary of the method: as §2

HCC1599 [25] = experiment: as above
Summary of the method: as §2

MCF-10A [26] = experiment: as above
Summary of the method: as §2

CAL-85-1 [27] = experiment: as above
Summary of the method: as §2

CAL-51 [28] = experiment: as above
Summary of the method: as §2

HDQ-P1 [29] = experiment: as above
Summary of the method: as §2

HCC1143 [30] = experiment: as above
Summary of the method: as §2

Hs578T [31] = experiment: as above
Summary of the method: as §2

HCC1937 [32] = experiment: as above
Summary of the method: as §2

BT-549 [33] = experiment: as above
Summary of the method: as §2

MDA-MB-436 [34] = experiment: as above
Summary of the method: as §2

CAL-120 [35] = experiment: as above
Summary of the method: as §2

MFM-223 [36] = experiment: as above
Summary of the method: as §2

SMILES | normalised response (CAL-148 [1]) | normalised response (MDA-MB-453 [2]) | normalised response (MDA-MB-468 [3]) | normalised response (BT-474 [4]) | normalised response (MDA-MB-231 [5]) | normalised response (DU-4475 [6]) | normalised response (HCC1599 [7]) | normalised response (MCF-10A [8]) | normalised response (CAL-85-1 [9]) | normalised response (CAL-51 [10]) | normalised response (HDQ-P1 [11]) | normalised response (HCC1143 [12]) | normalised response (SK-BR-3) | normalised response (Hs578T [13]) | normalised response (HCC1937 [14]) | normalised response (BT-549 [15]) | normalised response (MDA-MB-436 [16]) | normalised response (CAL-120 [17]) | normalised response (MFM-223 [18]) | normalised response (CAL-148 [19]) | normalised response (MDA-MB-453 [20]) | normalised response (MDA-MB-468 [21]) | normalised response (BT-474 [22]) | normalised response (MDA-MB-231 [23]) | normalised response (DU-4475 [24]) | normalised response (HCC1599 [25]) | normalised response (MCF-10A [26]) | normalised response (CAL-85-1 [27]) | normalised response (CAL-51 [28]) | normalised response (HDQ-P1 [29]) | normalised response (HCC1143 [30]) | normalised response (Hs578T [31]) | normalised response (HCC1937 [32]) | normalised response (BT-549 [33]) | normalised response (MDA-MB-436 [34]) | normalised response (CAL-120 [35]) | normalised response (MFM-223 [36])
COc1ncc(-c2ccc3nccc(-c4ccnnc4)c3c2)cc1NS(=O)(=O)c1ccc(F)cc1F (10 nM) | 96.1% | 63.3% | 80.2% | 78.3% | 82% | 93.1% | 83.4% | 63.7% | 69.5% | 77.2% | 60.7% | 85.2% | 53% | 77.5% | 78.7% | 72.7% | 84.6% | 75.7% | 82.7% | 91.5% | 102% | 68.8% | 93.4% | 106% | 101% | 112% | 110% | 81.9% | 104% | 89.5% | 107% | 95% | 96.1% | 106% | 106% | 102% | 96.3%
C[C@@]1(C(=O)Nc2ccc(F)nc2)CCCN1c1nc(Nc2cc(C3CC3)n[nH]2)c2cccn2n1 (100 nM) | 102% | 80% | 87.8% | 79.5% | 79.8% | 82.2% | 82.8% | 28.7% | 74.9% | 106% | 64.2% | 91.9% | 83.2% | 92.7% | 90.7% | 86.5% | 86.9% | 82.9% | 84.5% | 96.3% | 95.8% | 71.9% | 95.3% | 78.5% | 94.4% | 98% | 76.1% | 85.8% | 104% | 89% | 87.5% | 89.5% | 103% | 90.2% | 99.2% | 100% | 104%
COc1c(C)cnc(Cn2cnc3c(Cl)nc(N)nc32)c1C [BIIB021] (100 nM) | 88.7% | 81.4% | 81.6% | 106% | 109% | 101% | 85% | 100% | 90.8% | 82.7% | 81.7% | 97.9% | 45% | 101% | 82.1% | 65.9% | 82.6% | 85.9% | 82.7% | 62.7% | 98.5% | 108% | 95.7% | 107% | 103% | 109% | 91.5% | 78.5% | 122% | 109% | 107% | 107% | 88.4% | 114% | 82% | 101% | 97%
CC(C)C[C@H](NC(=O)[C@H](Cc1ccccc1)NC(=O)c1cnccn1)B(O)O [Bortezomib] (10 nM) | 98.8% | 69.2% | 2.63% | 44.5% | 69.3% | 88.6% | 89.7% | 113% | 12.3% | 96.8% | 61.7% | 74.7% | 30% | 66% | 64.8% | 10.1% | 35.6% | 74.6% | 17.6% | 87.2% | 109% | -99.2% | 92% | 70.5% | 111% | 101% | 74.6% | 16.3% | 110% | 75.7% | 105% | 71% | 61.9% | 97.2% | 72.3% | 88% | 82%
